Measured values from patent US20250255815A1, “NUCLEIC ACIDS ENCODING A CONSTITUTIVELY-ACTIVE CYCLIC GMP-AMP SYNTHASE AND IMMUNOGENIC DELIVERY VEHICLES FOR SAME” (Corner Therapeutics, Inc., priority 2022, published 2025).

B1: cGASΔN: constitutively-active truncated human cGAS, C-terminal domain (SEQ ID NO:1) (protein, listed as Homo sapiens)
chain: PGASKLRAVLEKLKLSRDDISTAAGMVKGVVDHLLLRLKCDSAFRGVGLLNTGSYYEHVKISAPNEFDVMFKLEVPRIQLEEYSNTRAYYFVKFKRNPKENPLSQFLEGEILSASKMLSKFRKIIKEEINDIKDTDVIMKRKRGGSPAVTLLISEKISVDITLALESKSSWPASTQEGLRIQNWLSAKVRKQLRLKPFYLVPKHAKEGNGFQEETWRLSFSHIEKEILNNHGKSKTCCENKEEKCCRKDCLKLMKYLLEQLKERFKDKKHLDKFSSYHVKTAFFHVCTQNPQDSQWDRKDLGLCFDNCVTYFLQCLRTEKLENYFIPEFNLFSSNLIDKRSKEFLTKQIEYERNNEFPVFDEF

Tests used:
[1] = system: canine PBMCs; test: IL-1β secretion by canine PBMCs (ELISA); assay type: cell-based; conditions: two days in culture, R848 1 μg/mL, 22:0 LYSO PC 82.5 μM
Method: (§1) Isolation of PBMCs from Whole Blood. PBMCs were isolated from whole blood using density gradient centrifugation with Ficoll-Paque PLUS (Cytivia). Whole blood was diluted 1:1 with PBS, layered on top of Ficoll-Paque PLUS and centrifuged at 1000×g for 30 minutes at room temperature. PBMCs were collected, washed twice in PBS, and incubated with Ack lysis buffer (Lonza) to remove any remaining red blood cells.
(§2) Cell Culture and Stimulation. Immediately following isolation, PBMCs were plated in RPMI medium containing 10% FBS, 50 units/mL penicillin, […] streptomycin, 2 mM L-glutamine, 1 mM sodium pyruvate, and […] beta-mercaptoethanol (R10 media). […]
(§3) Endpoint Analyses. […] Half of the media volume in the wells was collected for cytokine quantification by Enzyme-Linked Immunosorbent Assay (ELISA) or Lumit™ Bioluminescent assay, while the remaining media and cells were used to quantify cell viability by assessing metabolic activity.
(§4) Quantification of Cytokine Secretion. IL-1β secretion from human PBMCs was assessed using one of the following kits: ELISA MAX Deluxe Set Human IL-1β kit (Biolegend), Invitrogen Human IL-1β kit, or the Lumit™ Human IL-1β Immunoassay (Promega). IFNγ secretion from human PBMCs was assessed using the ELISA MAX Deluxe Set Human IFNγ (Biolegend) and TNFα secretion from human PBMCs was assessed using the Human TNFα Uncoated ELISA kit (Invitrogen). […]

[2] = system: human PBMCs; test: IFNγ and TNFα secretion by human PBMCs (ELISA); assay type: cell-based; conditions: two days post-hyperactivation
Method: Cell Culture and Stimulation. Immediately following isolation, PBMCs were plated in RPMI medium containing 10% FBS, 50 units/mL penicillin, […] streptomycin, 2 mM L-glutamine, 1 mM sodium pyruvate, and […] beta-mercaptoethanol (R10 media). Cells were plated at 1×10^5 (canine cells) or 1×10^6 (human cells) per well in 96-well flat bottom tissue culture plates. Lyophilized Vaccigrade R848 (Invivogen) was reconstituted and diluted according to manufacturer's recommendations and added to cells at a final concentration of 1 μg/mL. Immediately following, 22:0 LYSO PC was added to cells at a final concentration of 82.5 μM. […]
as §3, §4

[3] = system: human PBMCs; test: IL-1β secretion by human PBMCs (ELISA or Lumit); assay type: cell-based; conditions: two days in culture
Method: as §1, §2, §3, §4

[4] = system: human leukemia monocytic cell line; conditions: cited from earlier work

Molecule	IL-1β secretion [1]	IFNγ secretion, fold change per donor relative to R848 alone [2]	IL-1β secretion [3]	expression of interferon and interferon-stimulated genes [4]
Nc1nc2c(ncn2[C@@H]2O[C@@H]3COP(=O)(O)O[C@H]4[C@@H](O)[C@H](n5cnc6c(N)ncnc65)O[C@@H]4COP(=O)(O)O[C@@H]2[C@@H]3O)c(=O)[nH]1 [2′3′cGAMP, 2′3′cyclic GMP-AMP, reference compound]	neither GM-CSF nor 2′3′cGAMP induced significant IL-1β secretion	neither GM-CSF nor 2′3′cGAMP elicited a substantial fold change in IFNγ secretion over R848 alone		
GM-CSF: human GM-CSF (Peprotech), innate agonist	neither GM-CSF nor 2′3′cGAMP induced significant IL-1β secretion	neither GM-CSF nor 2′3′cGAMP elicited a substantial fold change in IFNγ secretion over R848 alone	did not induce levels of IL-1β secretion from human PBMCs significantly above background levels	
B1				higher levels of expression of interferon and interferon-stimulated genes
